Test results as given in the supplement of paper PMC11208160.

Assay: recombinant UMI read abundance after kanamycin selection (control-corrected) (log10(CPM+1)); higher = more efficient recombination; extreme values may be limits of the assay; sequences stand for … in AGTGCAGAGAAAATCGGCCAGTTTTCTCTGCCTGCAGTCCGCATGCCGTGGGACCCCTTGGGTTCTAACCTGTTGCCTAGATTTATGCAGCGGACTGCCTTTCTCCCAAAGTGATAAACCGG…AGGTTGGTTTCACT; site = the 11-nt donor
In short: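 Two replicates each of selected and unselected plating were used in this pooled Escherichia coli screen of donor and donor-binding-loop pairs for the IS621 bridge recombinase. Selection was with IPTG (0.07 mM) and kanamycin. Counts of recombinant UMIs, amplified across the donor–target junction, were converted to CPM, averaged, scaled by control-derived factors and reported as log10(CPM+1).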
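Also: IS621 bridge recombinase in Escherichia coli cells against a fixed T5 target plasmid.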

Sequence | recombinant UMI read abundance (log10)
ATGGAGGCATGGACCGGTTTTCCCGGTAATCCGTATTTGTG (site GTGGAGGCTCA) | 0.0176
ATGGAGGCATGGACCGGTTTTCCCGGTAATCCGTATTTGTG (site TTGGAGGCTCA) | 0.765
ATGGCTACATGGACCGGTTTTCCCGGTAATCCGTATTTGGG (site ATGGCTACTCC) | 0.356
ATGTAAGCATGGACCGGTTTTCCCGGTAATCCGTATTTGGC (site ATGTAAGCTGC) | 3.24
ATGTAAGCATGGACCGGTTTTCCCGGTAATCCGTATTTGGC (site ATGTACGCTGC) | 0.982
ATGTAAGCATGGACCGGTTTTCCCGGTAATCCGTATTTGGC (site ATGTAGGCTGC) | 2.04
ATGTAAGCATGGACCGGTTTTCCCGGTAATCCGTATTTGGC (site ATGTATGCTGC) | 0
ATGTACGCATGGACCGGTTTTCCCGGTAATCCGTATTTGGT (site ATGTACGCTAC) | 1.42
ATGTAGGCATGGACCGGTTTTCCCGGTAATCCGTATTTGCC (site ATGTAGGCTGA) | 1.76
ATGTAGGCATGGACCGGTTTTCCCGGTAATCCGTATTTGCC (site ATGTAGGCTGC) | 0
ATGTAGGCATGGACCGGTTTTCCCGGTAATCCGTATTTGCC (site ATGTAGGCTGG) | 2.21
ATGTAGGCATGGACCGGTTTTCCCGGTAATCCGTATTTGCC (site ATGTAGGCTGT) | 1.7
ATGTAGTCATGGACCGGTTTTCCCGGTAATCCGTATTTGGT (site ATGTAGTCTAC) | 2.81
ATTAAGTCATGGACCGGTTTTCCCGGTAATCCGTATTTGTA (site ATTAAGTCTTA) | 2.58
ATTAGAACATGGACCGGTTTTCCCGGTAATCCGTATTTGAG (site AATAGAACTCT) | 0.403
ATTAGAACATGGACCGGTTTTCCCGGTAATCCGTATTTGAG (site ACTAGAACTCT) | 0.665
ATTAGAACATGGACCGGTTTTCCCGGTAATCCGTATTTGAG (site AGTAGAACTCT) | 0.286
ATTAGAACATGGACCGGTTTTCCCGGTAATCCGTATTTGAG (site ATTAGAACTCT) | 1.22
ATTAGGCCATGGACCGGTTTTCCCGGTAATCCGTATTTGAC (site ATAAGGCCTGT) | 0
ATTAGGCCATGGACCGGTTTTCCCGGTAATCCGTATTTGAC (site ATCAGGCCTGT) | 0.0148
ATTAGGCCATGGACCGGTTTTCCCGGTAATCCGTATTTGAC (site ATGAGGCCTGT) | 0
ATTAGGCCATGGACCGGTTTTCCCGGTAATCCGTATTTGAC (site ATTAGGCCTGT) | 0
ATTATCCCATGGACCGGTTTTCCCGGTAATCCGTATTTGCC (site ATTATCCCTGG) | 0.749
ATTCACGCATGGACCGGTTTTCCCGGTAATCCGTATTTGCA (site ATTCACGCTTG) | 2.42
ATTCAGCCATGGACCGGTTTTCCCGGTAATCCGTATTTGTT (site ATTCAGCCTAA) | 0.0136

Sequence | recombinant UMI read abundance (log10)
ATTCATACATGGACCGGTTTTCCCGGTAATCCGTATTTGGC (site ATTCATACTGC) | 1.81
ATTCCATCATGGACCGGTTTTCCCGGTAATCCGTATTTGAC (site ATTCCATCTGT) | 0.764
ATTCCGACATGGACCGGTTTTCCCGGTAATCCGTATTTGTG (site ATTCCGACTCA) | 0.00802
ATTCGAGCATGGACCGGTTTTCCCGGTAATCCGTATTTGAA (site ATTCGAGCTTT) | 1.31
ATTGAAACATGGACCGGTTTTCCCGGTAATCCGTATTTGGT (site ATTGAAACTAC) | 1.66
ATTGAAACATGGACCGGTTTTCCCGGTAATCCGTATTTGGT (site ATTGACACTAC) | 0.0867
ATTGAAACATGGACCGGTTTTCCCGGTAATCCGTATTTGGT (site ATTGAGACTAC) | 0.484
ATTGAAACATGGACCGGTTTTCCCGGTAATCCGTATTTGGT (site ATTGATACTAC) | 0.0144
ATTGACCCATGGACCGGTTTTCCCGGTAATCCGTATTTGGA (site ATTGACCCTTC) | 0.0199
ATTGAGACATGGACCGGTTTTCCCGGTAATCCGTATTTGGA (site ATTGAGACTAC) | 0.0442
ATTGAGACATGGACCGGTTTTCCCGGTAATCCGTATTTGGA (site ATTGAGACTCC) | 0.663
ATTGAGACATGGACCGGTTTTCCCGGTAATCCGTATTTGGA (site ATTGAGACTGC) | 0.645
ATTGAGACATGGACCGGTTTTCCCGGTAATCCGTATTTGGA (site ATTGAGACTTC) | 1
ATTGAGACATGGACCGGTTTTCCCGGTAATCCGTATTTGGT (site AATGAGACTAC) | 0.233
ATTGAGACATGGACCGGTTTTCCCGGTAATCCGTATTTGGT (site ACTGAGACTAC) | 0.972
ATTGAGACATGGACCGGTTTTCCCGGTAATCCGTATTTGGT (site AGTGAGACTAC) | 0.609
ATTGAGACATGGACCGGTTTTCCCGGTAATCCGTATTTGGT (site ATAGAGACTAC) | 1.78
ATTGAGACATGGACCGGTTTTCCCGGTAATCCGTATTTGGT (site ATCGAGACTAC) | 0.854
ATTGAGACATGGACCGGTTTTCCCGGTAATCCGTATTTGGT (site ATGGAGACTAC) | 0.639
ATTGAGACATGGACCGGTTTTCCCGGTAATCCGTATTTGGT (site ATTAAGACTAC) | 1.62
ATTGAGACATGGACCGGTTTTCCCGGTAATCCGTATTTGGT (site ATTCAGACTAC) | 0.296
ATTGAGACATGGACCGGTTTTCCCGGTAATCCGTATTTGGT (site ATTGAAACTAC) | 1.88
ATTGAGACATGGACCGGTTTTCCCGGTAATCCGTATTTGGT (site ATTGACACTAC) | 0.0545
ATTGAGACATGGACCGGTTTTCCCGGTAATCCGTATTTGGT (site ATTGAGACTAA) | 0.949
ATTGAGACATGGACCGGTTTTCCCGGTAATCCGTATTTGGT (site ATTGAGACTAC) | 1.39

Sequence | recombinant UMI read abundance (log10)
ATTGAGACATGGACCGGTTTTCCCGGTAATCCGTATTTGGT (site ATTGAGACTAG) | 0.772
ATTGAGACATGGACCGGTTTTCCCGGTAATCCGTATTTGGT (site ATTGAGACTAT) | 1.17
ATTGAGACATGGACCGGTTTTCCCGGTAATCCGTATTTGGT (site ATTGAGACTCC) | 0.379
ATTGAGACATGGACCGGTTTTCCCGGTAATCCGTATTTGGT (site ATTGAGACTGC) | 0.953
ATTGAGACATGGACCGGTTTTCCCGGTAATCCGTATTTGGT (site ATTGAGACTTC) | 0.0155
ATTGAGACATGGACCGGTTTTCCCGGTAATCCGTATTTGGT (site ATTGAGCCTAC) | 0.0258
ATTGAGACATGGACCGGTTTTCCCGGTAATCCGTATTTGGT (site ATTGAGGCTAC) | 0.186
ATTGAGACATGGACCGGTTTTCCCGGTAATCCGTATTTGGT (site ATTGAGTCTAC) | 1.06
ATTGAGACATGGACCGGTTTTCCCGGTAATCCGTATTTGGT (site ATTGATACTAC) | 0.512
ATTGAGACATGGACCGGTTTTCCCGGTAATCCGTATTTGGT (site ATTGCGACTAC) | 0.151
ATTGAGACATGGACCGGTTTTCCCGGTAATCCGTATTTGGT (site ATTGGGACTAC) | 0.407
ATTGAGACATGGACCGGTTTTCCCGGTAATCCGTATTTGGT (site ATTGTGACTAC) | 0.471
ATTGAGACATGGACCGGTTTTCCCGGTAATCCGTATTTGGT (site ATTTAGACTAC) | 0.353
ATTGAGACATGGACCGGTTTTCCCGGTAATCCGTATTTGGT (site CTTGAGACTAC) | 0.935
ATTGAGACATGGACCGGTTTTCCCGGTAATCCGTATTTGGT (site GTTGAGACTAC) | 0.235
ATTGAGACATGGACCGGTTTTCCCGGTAATCCGTATTTGGT (site TTTGAGACTAC) | 0.435
ATTGATACATGGACCGGTTTTCCCGGTAATCCGTATTTGGT (site ATTGAAACTAC) | 0.445
ATTGATACATGGACCGGTTTTCCCGGTAATCCGTATTTGGT (site ATTGACACTAC) | 0.179
ATTGATACATGGACCGGTTTTCCCGGTAATCCGTATTTGGT (site ATTGAGACTAC) | 0.00596
ATTGATACATGGACCGGTTTTCCCGGTAATCCGTATTTGGT (site ATTGATACTAC) | 1.33
ATTGCAACATGGACCGGTTTTCCCGGTAATCCGTATTTGGG (site ATTGCAACTCC) | 0.0185
ATTGCCCCATGGACCGGTTTTCCCGGTAATCCGTATTTGTC (site ATTGCCCCTGA) | 0
ATTGCGGCATGGACCGGTTTTCCCGGTAATCCGTATTTGCT (site ATTGCGGCTAG) | 1.27
ATTGCGGCATGGACCGGTTTTCCCGGTAATCCGTATTTGCT (site CTTGCGGCTAG) | 0.161
ATTGCGGCATGGACCGGTTTTCCCGGTAATCCGTATTTGCT (site GTTGCGGCTAG) | 0.0081
